What was measured:
[1] = biological target: T1, pendrin (Homo sapiens, UniProt O43511); experiment: BCECF assay of Cl−/HCO3− exchange in primary HBE and CFBE cell cultures; type: cell-based; parameters: endogenous in cells; host or cells: primary human bronchial epithelial cultures from non-CF (HBE) and CF (CFBE) donors, with or without IL-13; details: 25 μM
T1 sequence (O43511 1-780): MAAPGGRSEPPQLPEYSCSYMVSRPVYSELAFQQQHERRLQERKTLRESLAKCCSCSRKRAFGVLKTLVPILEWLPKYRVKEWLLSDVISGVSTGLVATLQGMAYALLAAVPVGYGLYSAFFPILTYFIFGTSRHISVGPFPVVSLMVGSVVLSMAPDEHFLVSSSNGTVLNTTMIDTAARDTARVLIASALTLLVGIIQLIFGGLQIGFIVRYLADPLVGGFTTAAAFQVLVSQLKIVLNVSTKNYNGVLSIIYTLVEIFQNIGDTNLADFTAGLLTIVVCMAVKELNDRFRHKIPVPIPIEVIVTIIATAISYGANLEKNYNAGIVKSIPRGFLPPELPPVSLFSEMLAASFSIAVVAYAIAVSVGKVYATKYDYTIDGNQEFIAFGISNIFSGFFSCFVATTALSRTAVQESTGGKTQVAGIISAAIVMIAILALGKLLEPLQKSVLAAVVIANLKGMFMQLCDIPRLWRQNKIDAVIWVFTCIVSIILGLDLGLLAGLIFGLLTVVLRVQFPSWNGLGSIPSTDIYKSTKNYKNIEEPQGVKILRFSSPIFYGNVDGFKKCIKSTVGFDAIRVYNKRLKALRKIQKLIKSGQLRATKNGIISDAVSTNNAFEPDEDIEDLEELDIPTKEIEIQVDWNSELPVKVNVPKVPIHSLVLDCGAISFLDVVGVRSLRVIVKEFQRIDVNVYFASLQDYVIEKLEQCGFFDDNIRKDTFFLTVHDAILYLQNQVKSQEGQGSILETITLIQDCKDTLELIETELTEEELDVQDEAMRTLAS
Protocol: Bronchial tissues were obtained from non-CF (without significant airway disease) and CF subjects following lung transplantation, or from lungs donated for transplantation but subsequently found to be unsuitable for that purpose. Non-CF and CF human bronchial epithelial (HBE and CFBE, respectively) cell cultures were grown at an air-liquid interface as described in detail. At 21 days post-seeding, cells typically formed a tight epithelium (RTE>1000 Ωcm^2). In some experiments, the culture medium was supplemented with 10 ng/ml recombinant human IL-13 (Peprotech, Rocky Hill, N.J.) for 7 days starting at day 21 of culture. […] Pendrin transcript levels in human primary cells were measured by Taqman quantitative PCR using the Hs00166504_m1 probe set (ThermoFisher Scientific, Grand Island, N.Y.) at the UCSF Helen Diller Cancer Center Genome Analysis Core. […]
Cytoplasmic pH (pHi) was measured to assay pendrin-mediated Cl^−/HCO3^− exchange in pendrin-expressing FRT cells and primary cell cultures using the pH-sensitive fluorescent probe BCECF. […] BCECF pH-sensitive fluorescence (490 nm excitation, 535 nm emission) was acquired at 0.5 Hz, with control experiments confirming that BCECF pH-insensitive fluorescence was not altered during exchange protocols. In some experiments pHi changes in the absence of HCO3^− were measured using buffers in which NaCl or Na gluconate replaced NaHCO3^−. […]

[2] = Pharmacokinetics in mice, LC/MS of plasma and urine; type: in vivo; details: 10 mg/kg bolus ip
Protocol: Pharmacokinetics measurements were done to guide studies of diuretic efficacy. Animal experiments were approved by UCSF Institutional Animal Care and Use Committee. Female CD1 mice (8-10 weeks) were injected with 10 mg/kg PDSinh-C01 (in saline containing 5% DMSO and 10% Kolliphor HS) ip and blood was collected by orbital puncture at 15, 30, 60, 150 and 240 min, and centrifuged at 5000 rpm for 15 min to separate plasma. Urine was collected in metabolic cages. An LC/MS method was developed to measure PDSinh-C01 concentrations in mouse blood and urine. Plasma and urine samples (60 μL) were mixed with 300-μL acetonitrile and centrifuged at 13000 rpm for 20 min, and 90 μL of the supernatant was taken for liquid chromatography/mass spectrometry (LC/MS; Waters 2695 and Micromass ZQ). […] Sodium and potassium concentrations in 3-h collected urine samples were measured by flame photometry (PFP7 Clinical Flame Photometer, Bibby Scientific Ltd, Stone. Staffs, UK). […] Blood gas was analyzed by iSTAT1 with CG4+ cartridges (Abbott Laboratories, Abbott Park, IL, USA). Urine pH was measured on freshly collected urine samples using an AB 15 pH Meter (Fisher Scientific, Pittsburgh, Pa., USA). Experiments with two groups were analyzed with Student's t-test, and experiments with 3 or more groups were analyzed using one-way analysis of variance and post-hoc Newman-Keuls multiple comparisons test. […]

Structure (SMILES) | effect on intracellular alkalinization in response to gluconate gradient, IL-13-treated cultures ([1]; IL-13-treated) | effect on pH changes in response to gluconate gradient, control cultures ([1]; no added IL-13, 30 min) | concentration in plasma [2] | concentration in urine [2]
Cn1nc(COc2cccc(F)c2)c2c1CCN(C(=O)Nc1ccc(Cl)cc1)C2 [PDSinh-A01] | inhibited | not altered | – | –
Cc1n[nH]c(-c2cc(S(=O)(=O)NC3CCCc4ccccc43)c(C)s2)c1C (stereo not shown) [PDSinh-C01] | – | – | predicted therapeutic concentrations for several hours | predicted therapeutic concentrations for several hours

Source: patent publication US10702506B2, “Small molecule inhibitors of pendrin ion exchange and pharmaceutical compositions” (THE REGENTS OF THE UNIVERSITY OF CALIFORNIA, priority 2016, dated 2020)
